Measured values published in patent US12492173B2, “Herbicidal substituted N-tetrazolyl aryl carboxamides” (Bayer Aktiengesellschaft, priority 2019, dated 2025).

Legend:
Format in all cases: in vivo
Viola tricolor [1] = assay: Pre-emergence herbicidal action, VIOTR; parameters: key to Herbicidal action against VIOTR: % activity: 100 = plants have died, 0 = like control plants; details: for herbicidal action VIOTR: dosage 320 g/ha
Source text: (§1) 1. Pre-Emergence Herbicidal Action Against Harmful Plants Seeds of monocotyledonous and dicotyledonous weed plants and crop plants are laid out in sandy loam soil in wood-fiber pots and covered with soil. The compounds of the invention, formulated in the form of wettable powders (WP) or as emulsion concentrates (EC), are then applied to the surface of the covering soil in the form of an aqueous suspension or emulsion at a water application rate equating to 600 to 800 l/ha, with addition of 0.2% wetting agent. After the treatment, the pots are placed in a greenhouse and kept under good growth conditions for the trial plants. The damage to the test plants is scored visually after a test period of 3 weeks by comparison with untreated controls (herbicidal activity in percent (%): 100% activity=the plants have died, 0% activity=like control plants). […] The tables below illustrate, in an exemplary manner, the […] herbicidal action of the compounds according to the invention, the herbicidal activity being stated in percent. [table] In the experiments that follow, herbicidal action of numerous inventive compounds and the known compounds that are structurally closest from D1 (WO 2012/028579 A1) and D2 (WO 2018/202535 A1) were compared under the above-specified conditions by the pre-emergence and post-emergence method. The example numbers given in the tables relate to the compounds disclosed in the respective documents. In addition to the compounds disclosed in D1 and D2, the following compounds V-1 to V-14 that are encompassed by D1 or D2 but are not compounds specified therein were used in the comparative experiments: • V-1: 2-(methylsulfanyl)-3-(methylsulfinyl)-N-(1-methyl-1H-tetrazol-5-yl)-4-(trifluoromethyl)benzamide • V-2: 2-(methylsulfanyl)-3-(methylsulfonyl)-N-(1-methyl-1H-tetrazol-5-yl)-4-(trifluoromethyl)benzamide • V-3: 2,3-bis(ethylsulfanyl)-N-(1-methyl-1H-tetrazol-5-yl)-4-(trifluoromethyl)benzamide • V-4: 2-chloro-3-(ethylsulfanyl)-N-(1-methyl-1H-tetrazol-5-yl)-4-(trifluoromethyl)benzamide • V-5: 2-chloro-4-iodo-3-(methylsulfanyl)-N-(1-methyl-1H-tetrazol-5-yl)benzamide • V-6: 2-chloro-4-iodo-3-(methylsulfinyl)-N-(1-methyl-1H-tetrazol-5-yl)benzamide • V-7: 2-chloro-4-iodo-3-(methylsulfonyl)-N-(1-methyl-1H-tetrazol-5-yl)benzamide • V-8: 2-bromo-3-(methylsulfanyl)-N-(1-methyl-1H-tetrazol-5-yl)-4-(trifluoromethyl)benzamide • V-9: 2-bromo-3-(methylsulfinyl)-N-(1-methyl-1H-tetrazol-5-yl)-4-(trifluoromethyl)benzamide • V-10: 2-bromo-3-(methylsulfonyl)-N-(1-methyl-1H-tetrazol-5-yl)-4-(trifluoromethyl)benzamide • V-11: 2-bromo-3-(ethylsulfanyl)-N-(1-methyl-1H-tetrazol-5-yl)-4-(trifluoromethyl)benzamide • V-12: 2-bromo-3-(ethylsulfinyl)-N-(1-methyl-1H-tetrazol-5-yl)-4-(trifluoromethyl)benzamide • V-13: 2-bromo-3-(ethylsulfonyl)-N-(1-methyl-1-1H-tetrazol-5-yl)-4-(trifluoromethyl)benzamide • V-14: 2-cyclopropyl-3-(ethylsulfanyl)-N-(1-methyl-1H-tetrazol-5-yl)-4-(trifluoromethyl)benzamide Herbicidal Pre-Emergence Action: […]

Matricaria inodora [2] = assay: Pre-emergence herbicidal action, MATIN; parameters: key to Herbicidal action against MATIN: % activity: 100 = plants have died, 0 = like control plants; details: for herbicidal action MATIN: dosage 320 g/ha
Source text: as §1

Viola tricolor [3] = assay: Post-emergence herbicidal action, VIOTR; parameters: key: % herbicidal action vs untreated; 100 = plants died, 0 = like control; details: post-emergence
Procedure: (§2) [table] 2. Post-Emergence Herbicidal Action Against Harmful Plants Seeds of monocotyledonous and dicotyledonous weed and crop plants are laid out in sandy loam soil in wood-fiber pots, covered with soil and cultivated in a greenhouse under good growth conditions. 2 to 3 weeks after sowing, the test plants are treated at the one-leaf stage. The compounds of the invention, formulated in the form of wettable powders (WP) or as emulsion concentrates (EC), are then sprayed onto the green parts of the plants in the form of an aqueous suspension or emulsion at a water application rate equating to 600 to 800 l/ha, with addition of 0.2% wetting agent. After the test plants have been left to stand in the greenhouse under optimal growth conditions for about 3 weeks, the action of the preparations is assessed visually in comparison to untreated controls (herbicidal action in percent (%): 100% activity=the plants have died, 0% activity=like control plants). […] The tables below illustrate, in an exemplary manner, the post-emergence herbicidal action of the compounds according to the invention, the herbicidal activity being stated in percent. In the experiments that follow, herbicidal action of numerous inventive compounds and the known compounds that are structurally closest from D1 (WO 2012/028579 A1) and D2 (WO 2018/202535 A1) were compared under the above-specified conditions by the pre-emergence and post-emergence method. The example numbers given in the tables relate to the compounds disclosed in the respective documents. In addition to the compounds disclosed in D1 and D2, the following compounds V-1 to V-14 that are encompassed by D1 or D2 but are not compounds specified therein were used in the comparative experiments: • V-1: 2-(methylsulfanyl)-3-(methylsulfinyl)-N-(1-methyl-1H-tetrazol-5-yl)-4-(trifluoromethyl)benzamide • V-2: 2-(methylsulfanyl)-3-(methylsulfonyl)-N-(1-methyl-1H-tetrazol-5-yl)-4-(trifluoromethyl)benzamide • V-3: 2,3-bis(ethylsulfanyl)-N-(1-methyl-1H-tetrazol-5-yl)-4-(trifluoromethyl)benzamide • V-4: 2-chloro-3-(ethylsulfanyl)-N-(1-methyl-1H-tetrazol-5-yl)-4-(trifluoromethyl)benzamide • V-5: 2-chloro-4-iodo-3-(methylsulfanyl)-N-(1-methyl-1H-tetrazol-5-yl)benzamide • V-6: 2-chloro-4-iodo-3-(methylsulfinyl)-N-(1-methyl-1H-tetrazol-5-yl)benzamide • V-7: 2-chloro-4-iodo-3-(methylsulfonyl)-N-(1-methyl-1H-tetrazol-5-yl)benzamide • V-8: 2-bromo-3-(methylsulfanyl)-N-(1-methyl-1H-tetrazol-5-yl)-4-(trifluoromethyl)benzamide • V-9: 2-bromo-3-(methylsulfinyl)-N-(1-methyl-1H-tetrazol-5-yl)-4-(trifluoromethyl)benzamide • V-10: 2-bromo-3-(methylsulfonyl)-N-(1-methyl-1H-tetrazol-5-yl)-4-(trifluoromethyl)benzamide • V-11: 2-bromo-3-(ethylsulfanyl)-N-(1-methyl-1H-tetrazol-5-yl)-4-(trifluoromethyl)benzamide • V-12: 2-bromo-3-(ethylsulfinyl)-N-(1-methyl-1H-tetrazol-5-yl)-4-(trifluoromethyl)benzamide • V-13: 2-bromo-3-(ethylsulfonyl)-N-(1-methyl-1-1H-tetrazol-5-yl)-4-(trifluoromethyl)benzamide • V-14: 2-cyclopropyl-3-(ethylsulfanyl)-N-(1-methyl-1H-tetrazol-5-yl)-4-(trifluoromethyl)benzamide Herbicidal Pre-Emergence Action: […]

Echinochloa crus-galli [4] = assay: Post-emergence herbicidal action, ECHCG; parameters: key: % herbicidal action vs untreated; 100 = plants died, 0 = like control; details: post-emergence
Procedure: as §2

Amaranthus retroflexus [5] = assay: Post-emergence herbicidal action, AMARE; parameters: key: % herbicidal action vs untreated; 100 = plants died, 0 = like control; details: post-emergence
Procedure: as §2

Abutilon theophrasti [6] = assay: Pre-emergence herbicidal action, ABUTH; details: dosage 320 g/ha
Source text: as §1

Amaranthus retroflexus [7] = assay: Pre-emergence herbicidal action, AMARE; parameters: key to Herbicidal action against AMARE: % activity: 100 = plants have died, 0 = like control plants; details: for herbicidal action AMARE: dosage 320 g/ha
Source text: as §1

Stellaria media [8] = assay: Post-emergence herbicidal action, STEME; parameters: key: % herbicidal action vs untreated; 100 = plants died, 0 = like control; details: post-emergence
Procedure: as §2

Setaria viridis = assay: Post-emergence herbicidal action, SETVI; parameters: key: % herbicidal action vs untreated; 100 = plants died, 0 = like control; details: post-emergence
Procedure: as §2

Matricaria inodora [9] = assay: Post-emergence herbicidal action, MATIN; parameters: key: % herbicidal action vs untreated; 100 = plants died, 0 = like control; details: post-emergence, dosage 80 g/ha
Procedure: as §2

Pharbitis purpurea = assay: Post-emergence herbicidal action, PHBPU; details: post-emergence, dosage 80 g/ha
Procedure: as §2

Stellaria media [10] = assay: Pre-emergence herbicidal action, STEME; parameters: key to Herbicidal action against STEME: % activity: 100 = plants have died, 0 = like control plants; details: for herbicidal action STEME: dosage 320 g/ha
Source text: as §1

Echinochloa crus-galli [11] = assay: Pre-emergence herbicidal action, ECHCG; details: for herbicidal action ECHCG: dosage 320 g/ha
Source text: as §1

Veronica persica [12] = assay: Pre-emergence herbicidal action, VERPE; parameters: key to Herbicidal action against VERPE: % activity: 100 = plants have died, 0 = like control plants; details: for herbicidal action VERPE: dosage 320 g/ha
Source text: as §1

Veronica persica [13] = assay: Post-emergence herbicidal action, VERPE; parameters: key: % herbicidal action vs untreated; 100 = plants died, 0 = like control; details: post-emergence
Procedure: as §2

Abutilon theophrasti [14] = assay: Post-emergence herbicidal action, ABUTH; parameters: key: % herbicidal action vs untreated; 100 = plants died, 0 = like control; details: post-emergence
Procedure: as §2

[15] = comparative experiment, 20 g of a.i./ha
[16] = comparative experiment, 5 g of a.i./ha

SMILES	herbicidal action VIOTR (Viola tricolor [1])	herbicidal action MATIN (Matricaria inodora [2])	Herbicidal action against VIOTR (Viola tricolor [3]; dosage 80 g/ha)	Herbicidal action against ECHCG (Echinochloa crus-galli [4]; dosage 80 g/ha)	Herbicidal action against AMARE (Amaranthus retroflexus [5]; dosage 80 g/ha)	herbicidal action ABUTH (Abutilon theophrasti [6])	herbicidal action AMARE (Amaranthus retroflexus [7])	Herbicidal action against STEME (Stellaria media [8]; dosage 80 g/ha)	Herbicidal action against SETVI (Setaria viridis; dosage 80 g/ha)	Herbicidal action against MATIN (Matricaria inodora [9])	Herbicidal action against PHBPU (Pharbitis purpurea)	herbicidal action STEME (Stellaria media [10])	herbicidal action ECHCG (Echinochloa crus-galli [11])	herbicidal action VERPE (Veronica persica [12])	Herbicidal action against VERPE (Veronica persica [13]; dosage 80 g/ha)	Herbicidal action against ABUTH (Abutilon theophrasti [14]; dosage 80 g/ha)	also measured
COc1c(C(=O)Nc2nnnn2C)ccc(C(F)(F)F)c1CS(C)(=O)=O [Example 1-136]	80%	90%	90	90	90	100%	100%	100	90	90	90	80%	100%	100%	100		
Cc1c(C(=O)Nc2nnnn2C)ccc(S(C)(=O)=O)c1C[S+](C)[O-] (centres unmarked) [Example 1-38]		90%	80	90	100		80%	100				90%		100%	90		
CCSc1c(C(=O)Nc2nnnn2C)ccc(C(F)(F)F)c1SCC [Example V-3, 2,3-bis(ethylsulfanyl)-N-(1-methyl-1H-tetrazol-5-yl)-4-(trifluoromethyl)benzamide, reference compound]																	Herbicidal action against VIOTR (Viola tricolor [1]; [15]): 0; Herbicidal action against MATIN (Matricaria inodora [2]; [15]): 0; Herbicidal action against VIOTR (Viola tricolor [3]; [16]): 0; Herbicidal action against ECHCG (Echinochloa crus-galli [4]; [16]): 0; Herbicidal action against AMARE (Amaranthus retroflexus [5]; [16]): 0; Herbicidal action against AMARE (Amaranthus retroflexus [7]; [15]): 0; Herbicidal action against STEME (Stellaria media [8]; [16]): 0; Herbicidal action against SETVI (Setaria viridis; [16]): 0; Herbicidal action against STEME (Stellaria media [10]; [15]): 0; pest or weed control at 20 g/ha (Echinochloa crus-galli [11]; Echinochloa crus-galli, 504 h, comparative experiment, 20 g of a.i./ha, read-out: Herbicidal action against ECHCG): 0%; Herbicidal action against VERPE (Veronica persica [12]; [15]): 0; Herbicidal action against ABUTH (Abutilon theophrasti [14]; [16]): 0; Herbicidal action against VERPE (Veronica persica [13]; [16]): 0
CSCc1c(S(C)(=O)=O)ccc(C(=O)Nc2nnnn2C)c1Cl [Example 1-278]			100	100	100	90%	100%	90	100		90	80%	90%	90%		90	
CCCn1nnnc1NC(=O)c1ccc(C)c(CSC)c1Cl [Example 3-287]	80%	100%	90	90	100		100%	100		100	80	90%	100%	90%		90	
